Experimental data taken from ChEMBL document CHEMBL2401657, “Discovery of new PPARγ agonists based on arylopeptoids” (Bioorg Med Chem Lett, 2013).
Activity calls are given as the source filed them. The calls are words filed in the database; no cut-off is given here.

Key:
[1] = target: T1, Peroxisome proliferator-activated receptor gamma (Homo sapiens) (UniProt P37231); assay: Transactivation of human PPARgamma LBD transfected in mouse embryo fibroblasts at 100 uM after 18 hrs by Gal4-responsive luciferase reporter gene assay relative to vehicle-treated control
T1 sequence (whole entry): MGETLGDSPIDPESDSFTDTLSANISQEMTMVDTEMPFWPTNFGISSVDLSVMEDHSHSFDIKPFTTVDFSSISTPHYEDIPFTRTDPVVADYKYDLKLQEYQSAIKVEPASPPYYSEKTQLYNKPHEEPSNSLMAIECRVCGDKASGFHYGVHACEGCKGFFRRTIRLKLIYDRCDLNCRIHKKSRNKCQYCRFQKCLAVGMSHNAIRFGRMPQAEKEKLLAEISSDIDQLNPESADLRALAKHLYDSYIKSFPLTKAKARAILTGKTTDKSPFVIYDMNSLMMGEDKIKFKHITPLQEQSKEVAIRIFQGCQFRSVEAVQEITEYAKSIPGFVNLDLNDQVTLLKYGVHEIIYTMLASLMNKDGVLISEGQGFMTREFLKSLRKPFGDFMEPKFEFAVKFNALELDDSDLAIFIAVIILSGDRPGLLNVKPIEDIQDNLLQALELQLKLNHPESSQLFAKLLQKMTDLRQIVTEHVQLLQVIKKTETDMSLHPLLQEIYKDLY

[2] = target: Free fatty acid receptor 1 (Homo sapiens) (UniProt O14842); assay: Antagonist activity at FFAR1 (unknown origin) assessed as inhibition of GW9508-induced calcium mobilization at 10 uM preincubated for 20 mins followed by GW9508 induction by fluorescence assay; type: functional
[3] = target: T1, Peroxisome proliferator-activated receptor gamma (Homo sapiens); assay: Transactivation of human PPARgamma LBD transfected in mouse embryo fibroblasts at 100 uM after 18 hrs by Gal4-responsive luciferase reporter gene assay relative to rosiglitazone
[4] = target: Free fatty acid receptor 1 (Homo sapiens) (UniProt O14842); assay: Agonist activity at FFAR1 (unknown origin) assessed as induction of calcium mobilization at 10 uM by fluorescence assay; type: functional
[5] = Cytotoxicity against mouse embryo fibroblasts; type: cell-based; settings: fibroblast
[6] = target: T2, Peroxisome proliferator-activated receptor alpha (Homo sapiens) (UniProt Q07869); assay: Transactivation of PPARalpha (unknown origin) relative to control
T2 sequence (whole entry): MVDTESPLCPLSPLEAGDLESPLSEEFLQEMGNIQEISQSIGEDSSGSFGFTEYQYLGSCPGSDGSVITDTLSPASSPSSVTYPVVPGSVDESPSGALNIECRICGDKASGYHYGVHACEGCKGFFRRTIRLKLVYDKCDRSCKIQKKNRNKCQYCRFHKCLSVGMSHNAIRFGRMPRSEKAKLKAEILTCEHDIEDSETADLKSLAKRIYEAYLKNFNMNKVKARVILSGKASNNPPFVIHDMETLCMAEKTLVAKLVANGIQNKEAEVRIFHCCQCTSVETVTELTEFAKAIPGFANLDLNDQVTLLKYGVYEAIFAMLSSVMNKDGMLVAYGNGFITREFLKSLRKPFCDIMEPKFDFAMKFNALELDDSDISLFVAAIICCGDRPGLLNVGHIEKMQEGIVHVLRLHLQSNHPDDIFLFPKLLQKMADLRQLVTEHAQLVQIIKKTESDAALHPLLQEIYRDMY

[7] = target: T3, Peroxisome proliferator-activated receptor gamma (Homo sapiens, UniProt P37231); assay: Binding affinity to GST-tagged human PPARgamma LBD by ligand displacement assay
T3 sequence (P37231 whole entry): T1 sequence (whole entry)

[8] = target: T4, Peroxisome proliferator-activated receptor delta (Homo sapiens) (UniProt Q03181); assay: Transactivation of PPARdelta (unknown origin) relative to control
T4 sequence (whole entry): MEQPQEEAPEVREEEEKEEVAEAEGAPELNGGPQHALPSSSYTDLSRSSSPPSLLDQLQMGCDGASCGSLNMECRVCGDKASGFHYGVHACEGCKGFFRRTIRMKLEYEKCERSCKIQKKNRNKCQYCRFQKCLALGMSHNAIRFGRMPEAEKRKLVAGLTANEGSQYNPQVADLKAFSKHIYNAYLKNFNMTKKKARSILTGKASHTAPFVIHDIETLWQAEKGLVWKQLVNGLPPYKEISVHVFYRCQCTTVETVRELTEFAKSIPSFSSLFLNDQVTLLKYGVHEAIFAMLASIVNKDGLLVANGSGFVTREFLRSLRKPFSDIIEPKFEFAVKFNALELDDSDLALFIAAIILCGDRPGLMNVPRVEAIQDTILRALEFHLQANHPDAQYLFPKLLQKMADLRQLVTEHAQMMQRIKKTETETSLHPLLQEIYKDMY

[9] = target: T5, Retinoic acid receptor RXR-alpha (Homo sapiens) (UniProt P19793); assay: Transactivation of RXRalpha (unknown origin) relative to control
T5 sequence (whole entry): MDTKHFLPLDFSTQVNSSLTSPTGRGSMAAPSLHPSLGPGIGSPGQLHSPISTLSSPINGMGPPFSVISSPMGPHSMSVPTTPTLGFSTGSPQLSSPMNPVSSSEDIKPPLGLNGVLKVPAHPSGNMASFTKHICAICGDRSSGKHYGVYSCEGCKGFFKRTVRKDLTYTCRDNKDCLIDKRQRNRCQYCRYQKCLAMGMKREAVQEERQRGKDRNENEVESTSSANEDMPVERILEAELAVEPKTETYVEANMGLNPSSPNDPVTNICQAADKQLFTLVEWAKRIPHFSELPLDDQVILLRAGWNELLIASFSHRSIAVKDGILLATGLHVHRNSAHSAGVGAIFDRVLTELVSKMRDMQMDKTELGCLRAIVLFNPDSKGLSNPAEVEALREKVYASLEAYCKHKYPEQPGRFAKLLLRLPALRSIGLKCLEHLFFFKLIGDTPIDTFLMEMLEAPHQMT

Sequence of Free fatty acid receptor 1 (Homo sapiens) (O14842 whole entry, the tested form may be a part): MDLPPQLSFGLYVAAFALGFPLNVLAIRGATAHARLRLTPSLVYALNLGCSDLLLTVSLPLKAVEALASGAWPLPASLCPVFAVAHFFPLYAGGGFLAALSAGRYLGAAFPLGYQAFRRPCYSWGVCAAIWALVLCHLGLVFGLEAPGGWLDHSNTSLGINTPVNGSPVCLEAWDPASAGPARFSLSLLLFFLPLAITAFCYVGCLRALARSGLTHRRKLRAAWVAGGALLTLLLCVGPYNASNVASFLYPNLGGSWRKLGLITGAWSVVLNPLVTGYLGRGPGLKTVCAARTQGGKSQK

Row | SMILES | fold change (FC) [1] | inhibition [2] | Activity [3] | Activity [4] | Activity [5] | fold change (FC) [6] | IC50 [7] | fold change (FC) [8] | fold change (FC) [9]
1 | CC(C)N(Cc1cccc(C(=O)NCc2ccc(CCC(=O)O)cc2)c1)C(=O)c1ccccc1 | 7.3 | inactive | 18.4% | inactive | Non-toxic |  |  |  | 
2 | CCN(Cc1ccc(C(=O)N(Cc2ccc(CCC(=O)O)cc2)C(C)C)cc1)C(=O)c1ccccc1 | 6.9 | inactive | 11.6% | inactive | Non-toxic |  |  |  | 
3 | CCN(Cc1cccc(C(=O)N(CC)Cc2ccc(CCC(=O)O)cc2)c1)C(=O)c1ccccc1 | 11.2 | inactive | 20.9% | inactive | Non-toxic | > 2 | 56.2 µM | < 2 | < 2
4 | CC(C)N(Cc1cccc(C(=O)N(Cc2ccc(CCC(=O)O)cc2)C(C)C)c1)C(=O)c1ccccc1 | 5.3 | inactive | 10.7% | inactive | Non-toxic |  |  |  | 
5 | O=C(O)CCc1ccc(CNC(=O)c2ccc(CNC(=O)c3ccccc3)cc2)cc1 | 2.5 | inactive | 5.4% | inactive | Non-toxic |  |  |  | 
6 | CCN(Cc1ccc(C(=O)N(CC)Cc2ccc(CCC(=O)O)cc2)cc1)C(=O)c1ccccc1 | 7.3 | inactive | 13.8% | inactive | Non-toxic |  |  |  | 
7 | CCN(Cc1ccc(CCC(=O)O)cc1)C(=O)c1ccc(CNC(=O)c2ccccc2)cc1 | 6.2 | inactive | 11.8% | inactive | Non-toxic |  |  |  | 
8 | CCN(Cc1ccc(CCC(=O)O)cc1)C(=O)c1cccc(CNC(=O)c2ccccc2)c1 | 8.1 | inactive | 15.1% | inactive | Non-toxic |  |  |  | 
9 | CCN(Cc1ccc(CCC(=O)O)cc1)C(=O)c1ccc(CN(C(=O)c2ccccc2)C(C)C)cc1 | 3.6 | inactive | 6.9% | inactive | Non-toxic |  |  |  | 
10 | CCN(Cc1ccc(CCC(=O)O)cc1)C(=O)c1cccc(CN(C(=O)c2ccccc2)C(C)C)c1 | 6.2 | inactive | 11.6% | inactive | Non-toxic |  |  |  | 
11 | CCN(Cc1cccc(C(=O)NCc2ccc(CCC(=O)O)cc2)c1)C(=O)c1ccccc1 | 9.3 | inactive | 23.5% | inactive | Non-toxic |  |  |  | 
12 | O=C(O)CCc1ccc(CNC(=O)c2cccc(CNC(=O)c3ccccc3)c2)cc1 | 5.6 | inactive | 14.1% | inactive | Non-toxic | < 2 | 62.7 µM | < 2 | < 2
13 | CC(C)N(Cc1ccc(CCC(=O)O)cc1)C(=O)c1cccc(CNC(=O)c2ccccc2)c1 | 13.4 | inactive | 27.2% | inactive | Non-toxic | < 2 | 38.7 µM | < 2 | 5
14 | CC(C)N(Cc1ccc(C(=O)NCc2ccc(CCC(=O)O)cc2)cc1)C(=O)c1ccccc1 | 5.7 | inactive | 12.5% | inactive | Non-toxic |  |  |  | 
15 | CC(C)N(Cc1ccc(CCC(=O)O)cc1)C(=O)c1ccc(CNC(=O)c2ccccc2)cc1 | 12.6 | inactive | 21.2% | inactive | Non-toxic |  |  |  | 
16 | CCN(Cc1cccc(C(=O)N(Cc2ccc(CCC(=O)O)cc2)C(C)C)c1)C(=O)c1ccccc1 | 5.8 | inactive | 11.8% | inactive | Non-toxic |  |  |  | 
17 | CC(C)N(Cc1ccc(C(=O)N(Cc2ccc(CCC(=O)O)cc2)C(C)C)cc1)C(=O)c1ccccc1 | 14.7 | inactive | 24.7% | inactive | Non-toxic |  |  |  | 
18 | CCN(Cc1ccc(C(=O)NCc2ccc(CCC(=O)O)cc2)cc1)C(=O)c1ccccc1 | 6 | inactive | 13.1% | inactive | Non-toxic |  |  |  | 
